Assay: xn = mol fraction of the nth substance listed
Conditions: 101 kPa

CCCCCCCCCCCCCCCC[n+]1ccccc1.O=C([O-])C(O)c1ccccc1 + CC(C)C[C@H](N)C(=O)O + O
electrical conductivity [S/m]
Conditions | 293.15 K | 298.15 K | 303.15 K | 308.15 K | 313.15 K
x1 = 9.1e-07, x2 = 0.001799 | 0.00171 | 0.00194 | 0.00216 | 0.0024 | 0.0027
x1 = 1.08e-06, x2 = 0 | 0.00061 | 0.00068 | 0.00076 | 0.00083 | 0.0009
x1 = 1.27e-06, x2 = 0.0009002 | 0.00143 | 0.0016 | 0.0018 | 0.002 | 0.0022
x1 = 1.98e-06, x2 = 0 | 0.001 | 0.0012 | 0.0013 | 0.0014 | 0.0016
x1 = 2.19e-06, x2 = 0.001799 | 0.00211 | 0.00239 | 0.00267 | 0.003 | 0.0033
x1 = 2.54e-06, x2 = 0.0009002 | 0.00187 | 0.00211 | 0.00235 | 0.0026 | 0.0029
x1 = 2.88e-06, x2 = 0 | 0.00147 | 0.0016 | 0.0018 | 0.002 | 0.0022
x1 = 3.1e-06, x2 = 0.001799 | 0.00244 | 0.00277 | 0.00309 | 0.0034 | 0.0038
x1 = 3.44e-06, x2 = 0.0009002 | 0.0022 | 0.00251 | 0.00278 | 0.0031 | 0.0034
x1 = 3.96e-06, x2 = 0 | 0.0019 | 0.0022 | 0.0024 | 0.0026 | 0.0029
x1 = 4.19e-06, x2 = 0.001799 | 0.00279 | 0.00316 | 0.00352 | 0.0039 | 0.0043
x1 = 4.69e-06, x2 = 0 | 0.0023 | 0.0026 | 0.0029 | 0.0031 | 0.0035
x1 = 4.71e-06, x2 = 0.0009002 | 0.00261 | 0.00294 | 0.00329 | 0.0036 | 0.004
x1 = 5.1e-06, x2 = 0.001799 | 0.00312 | 0.00353 | 0.00394 | 0.0044 | 0.0048
x1 = 5.95e-06, x2 = 0 | 0.00281 | 0.0032 | 0.0035 | 0.0038 | 0.0042
x1 = 5.98e-06, x2 = 0.0009002 | 0.00307 | 0.00345 | 0.00384 | 0.0043 | 0.0047
x1 = 6.74e-06, x2 = 0.001799 | 0.00363 | 0.0041 | 0.00457 | 0.0051 | 0.0056
x1 = 7.21e-06, x2 = 0 | 0.00341 | 0.0038 | 0.0042 | 0.0046 | 0.0051
x1 = 7.43e-06, x2 = 0.0009002 | 0.00352 | 0.00397 | 0.00441 | 0.0049 | 0.0054
x1 = 8.2e-06, x2 = 0.001799 | 0.00408 | 0.00463 | 0.00516 | 0.0057 | 0.0064
x1 = 8.7e-06, x2 = 0.0009002 | 0.00394 | 0.00445 | 0.00497 | 0.0055 | 0.0061
x1 = 8.83e-06, x2 = 0 | 0.00406 | 0.0046 | 0.005 | 0.0055 | 0.006
x1 = 9.84e-06, x2 = 0.001799 | 0.00451 | 0.00511 | 0.00572 | 0.0064 | 0.0071
x1 = 1.045e-05, x2 = 0 | 0.00469 | 0.0053 | 0.0058 | 0.0065 | 0.0071
x1 = 1.051e-05, x2 = 0.0009002 | 0.00444 | 0.00501 | 0.0056 | 0.0062 | 0.0069
x1 = 1.13e-05, x2 = 0.001799 | 0.00486 | 0.00551 | 0.00618 | 0.0069 | 0.0077
x1 = 1.196e-05, x2 = 0.0009002 | 0.00475 | 0.00538 | 0.006 | 0.0067 | 0.0075
x1 = 1.207e-05, x2 = 0 | 0.00516 | 0.0058 | 0.0064 | 0.0071 | 0.0079
x1 = 1.294e-05, x2 = 0.001799 | 0.00522 | 0.00591 | 0.00661 | 0.0074 | 0.0082
x1 = 1.323e-05, x2 = 0.0009002 | 0.00506 | 0.00573 | 0.0064 | 0.0071 | 0.0079
x1 = 1.351e-05, x2 = 0 | 0.00562 | 0.00631 | 0.007 | 0.0077 | 0.0085
x1 = 1.44e-05, x2 = 0.001799 | 0.00556 | 0.00629 | 0.00704 | 0.0079 | 0.0088
x1 = 1.468e-05, x2 = 0.0009002 | 0.00539 | 0.00609 | 0.0068 | 0.0076 | 0.0084
x1 = 1.478e-05, x2 = 0 | 0.00603 | 0.0068 | 0.0075 | 0.0083 | 0.0092
x1 = 1.585e-05, x2 = 0.001799 | 0.00586 | 0.00664 | 0.00743 | 0.0083 | 0.0092
x1 = 1.595e-05, x2 = 0.0009002 | 0.00568 | 0.00642 | 0.0072 | 0.008 | 0.0089
x1 = 1.622e-05, x2 = 0 | 0.00644 | 0.0072 | 0.008 | 0.0089 | 0.0098
x1 = 1.722e-05, x2 = 0.0009002 | 0.00598 | 0.00676 | 0.0075 | 0.0084 | 0.0093
x1 = 1.731e-05, x2 = 0.001799 | 0.00617 | 0.00698 | 0.00783 | 0.0087 | 0.0097
x1 = 1.766e-05, x2 = 0 | 0.00687 | 0.0077 | 0.0085 | 0.0094 | 0.0104

CCCCCC[n+]1ccn(C)c1.F[B-](F)(F)F + CC(C)O
Conditions | viscosity [mPa·s]
293.15 K, x2 = 0.9165 | 3.61
303.15 K, x2 = 0.1493 | 68.1
303.15 K, x2 = 0.3752 | 26.9
303.15 K, x2 = 0.5845 | 11.6
303.15 K, x2 = 0.7067 | 7.02
303.15 K, x2 = 0.762 | 5.47
313.15 K, x2 = 0.2992 | 24.9
313.15 K, x2 = 0.762 | 3.99
323.15 K, x2 = 0 | 50.3
323.15 K, x2 = 0.2289 | 21.4
323.15 K, x2 = 0.2992 | 18.8
333.15 K, x2 = 0 | 34
333.15 K, x2 = 0.1493 | 20.7
333.15 K, x2 = 0.3752 | 10.33
333.15 K, x2 = 0.762 | 2.35

COP(=O)([O-])OC.Cn1cc[n+](C)c1 + CC(C)O
Conditions | viscosity [mPa·s]
293.15 K, x2 = 0 | 416
293.15 K, x2 = 0.0999 | 357
298.15 K, x2 = 0.2032 | 183
298.15 K, x2 = 0.5002 | 53.3
298.15 K, x2 = 0.7009 | 17.98
303.15 K, x2 = 0.5002 | 43.28
308.15 K, x2 = 0.7009 | 13.26
308.15 K, x2 = 0.9013 | 3.819
313.15 K, x2 = 0 | 119.2
313.15 K, x2 = 0.0999 | 106.6
313.15 K, x2 = 0.2032 | 82.2
313.15 K, x2 = 0.301 | 63.1
318.15 K, x2 = 0.2032 | 66.1
318.15 K, x2 = 0.5002 | 25.15
318.15 K, x2 = 0.7009 | 10.13
323.15 K, x2 = 0.5002 | 21.5
323.15 K, x2 = 0.9013 | 2.638

From the CheMixHub ionic liquid set
